Results taken from EP1588698A2, “A process for the production and screening of materials for use in pharmaceutical aerosol formulations” (Thompson, James Anthony, priority 2004, dated 2005).

Key:
Assay type in all cases: physicochemical
[1] = Stability of ethanol / HFA 134(a) pMDI formulations in plastic coated glass bottles; conditions: ethanol co-solvent in HFA 134(a); equivalent to 100mcg of free base per actuation
Text: The solid compound is then isolated by a suitable method. Figures 3 and 4 indicates the solubility profiles of the respective salts synthesised. […] The mass of derivative was formulated at a level to give an equivalent to 100mcg of free base per actuation from the metering valve. Results from the formulations are depicted in figure 5 for the maleate salt 6 for the oleate salt and 7 to illustrate the precipitation technique by 7 controlled precipitation by the use of a second antisolvent: water on formulations of salbutamol maleate. […] Skilled artisans may endeavour to include surfactants or further co-solvents to enhance solubility. Such excipients may include but not be limited to conventional surfactants: Brij's Tween's lecithins polyvinylpyrollidone and those described in suitable pharmaceutical excipients handbooks. Figures 5, 6 (maleate salt side and plan views) and 7 (oleate salt arrows indicate crystals) illustrate 134(a) as an antisolvent as the drug […] from solution. The particle size of each drug is different, which leads to an embodiment of invention: use of derivative, co-solvent level, excipients level and antisolvent concentrations to precipitate actives to a desired particle size by careful moderation of the components. […] Formulations were then stored at specified temperatures and assessed periodically. […]

[2] = Screening of salt derivative solubility in ethanol co-solvent
Text: Solubility, of a drug salt derivative, to an appreciable extent, in solvents miscible with the propellant(s) provides a simple yet robust screening method.
The co-solvent used to screen derivative solubility and formulation approach was ethanol. […] A comprehensive list can be taken from texts such as the handbook of pharmaceutical excipients. Ethanol and water mixtures may be utilised. For solution aerosols a single phase is required when in the final formulation, but equally a suspension or emulsion may results and be utilised. As the model bronchodilator was a basic compound acids requisite for salt formation (from pKa values) were selected. […] The solvent necessary to facilitate dissolution is assumed to be of sufficient dielectric constant and an ideal solvent, although skilled practitioners will endeavor to try a range of solvents as formulation science is empirical. Other examples of suitable acids are acetate, benzenesulphonate, mesylate etc, and can be sought from any suitable text: Martindale 2005. […] Preferentially precipitated or solvated species may result from careful selection of reagents and forms of the active described. Preferentially precipitated or solvated compounds can be isolated either in bulk or in-situ for use.
Two non-limiting examples of use of the manufacture/ screening method are described below.

[3] = Cascade impactor particle size and deposition under controlled temperature and relative humidity
Text: Formulations of salt derivatives whether prepared by the following method but any suitable method can be utilise. Plastic coated glass pMDI bottles (St Gobain, France) were weighed on a balance and tared after first undergoing a rinse with clean and dry compressed air. Drug was weighed accurately by difference in order to give an equivalent of 100mcg freebase as related to molecular mass of the salt and the same procedure repeated for absolute ethanol (Fisher scientific). A continuous […] on (Bespak, Kings Lynn, UK), according to manufacturers specifications and the bottle then sonicated (Decon FS 3006) for several minutes to induce complete dissolution of the drug. The bottle was then dried and once again tared on the balance. HFA 134(a) was subsequently charged through the valve using a Pamasol 2002 hand […] (DH Industries, Laindon, Essex, UK). The final formulation preparation was sonicated for a further several minutes for completeness. Formulations were then stored at specified temperatures and assessed periodically. All solutions were prepared in duplicate. 10% w/w ethanol : 90% w/w HFA 134(a) formulations were prepared. This is in no way intended to limit the extent of the formulations. Solutions were tested for particle size using a cascade impactor, which to that practitioner skilled is standardised method for determining particle size distributions, under conditions of thermal and environmental control. Figures 9-12 illustrate the invention from particle size results. […] It is therefore an embodiment to use derivatives to utilise derivatives not known to optimise deposition.

[4] = Morphology of particles deposited from pMDI (SEM, impactor plate); conditions: lab ambient, without a liquid air interface

Substance	co-solvent level at which stable solution formulations achievable [1] [% w/w]	solubility in ethanol [2]	behaviour of the salt in ethanol solution (stable or precipitates) ([2]; ethanol reaction solution)	%Deposited at Location ACTUATOR ([3]; HT/HRH) [%]	%Deposited at Location FPF ([3]; HT/HRH) [%]	%Deposited at Location THROAT ([3]; HT/HRH) [%]	%Deposited at Location ACTUATOR ([3]; HT/LRH) [%]	%Deposited at Location FPF ([3]; HT/LRH) [%]	%Deposited at Location THROAT ([3]; HT/LRH) [%]	%Deposited at Location ACTUATOR ([3]; LT/HRH) [%]	%Deposited at Location FPF ([3]; LT/HRH) [%]	%Deposited at Location THROAT ([3]; LT/HRH) [%]	%Deposited at Location ACTUATOR ([3]; LT/LRH) [%]	%Deposited at Location FPF ([3]; LT/LRH) [%]	%Deposited at Location THROAT ([3]; LT/LRH) [%]	particle morphology on deposition [4]
Salbutamol cis-butenedioate (Maleate)	15	ethanol soluble	stable as a solution in ethanol, even at ultra low temperatures	27.35	57.42	11.78	22.00	63.24	12.74	16.33	52.88	25.96	8.97	42.76	44.24	–
salbutamol fumarate	–	NB the Fumarate was insoluble in ethanol even though its only difference to the maleate was the trans arrangement of the carboxylic acid groups.	–	–	–	–	–	–	–	–	–	–	–	–	–	–
Salbutamol cis-octadecenoate (Oleate)	30	–	–	20.37	67.00	7.52	16.74	67.87	7.70	19.54	67.43	8.82	6.86	72.33	17.29	spread as a surfactant
